In US8808702B2, “Sulfide, sulfoxide and sulfone chalcone analogues, derivatives thereof and therapeutic uses thereof” (Temple University-of the Commonwealth System of Higher …, priority 2006, dated 2014) one finds IC50 data, which are given here for 56 compounds.

Experiment [1] concerns K562 (chronic myelogenous leukaemia). Put plainly: Effect of compounds on tumor cell lines (assay of Latham et al.), K562. It is filed as cell-based. Conditions: K562 cells, 96 hours after treatment, 1 μM to 100 μM; read-out: K 562 potency (IC50). In short, it runs like this: (§1)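 After 96 h of exposure to compound (1–100 μM in DMSO; one compound at 0.1–100 μM), effects were scored by inverted-microscope inspection, with trypan blue viable counts by hemacytometer when required. Cells were seeded at 2.5×10^4 per well and dosed 24 h after plating.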

The subject of a further experiment is DU145 (prostate cancer). Put plainly: Effect of compounds on tumor cell lines (assay of Latham et al.), DU145. It is filed as cell-based. Conditions: DU145 cells, 96 hours after treatment, 1 μM to 100 μM; read-out: DU 145 potency (IC50). In short, it runs like this:
as §1

Molecules are shown by their SMILES.

Broadly, the IC50 is the concentration that inhibits the measured activity by half.

As for `CSc1ccc(/C=C(/SCc2ccc(Br)cc2)C(=O)c2ccc(C(=O)O)cc2)cc1` [Example 188], the IC50 (in experiment [1]; with DU145 (prostate cancer)) was 25 to 50 µM each time.
In the case of `O=C(/C(=C\c1cccc(Cl)c1Cl)SCc1ccc(Cl)cc1)c1ccc(Br)cc1` [Example 190], the IC50 (in experiment [1]; in the experiment on DU145 (prostate cancer)) was 10 to 25 µM each time.
As for `O=C(C(=Cc1cccc(Cl)c1Cl)SCc1ccc(Cl)cc1)c1ccc(Cl)cc1` [Example 191], the values for the IC50 (in experiment [1]; in the experiment on DU145 (prostate cancer)) were 1 to 10 µM and 10 to 25 µM, respectively.
Taken in the same sequence, the figures for `O=C(C(=Cc1c(O)cc(O)cc1O)SCc1ccc(Cl)cc1)c1ccc(Cl)cc1` [Example 192] were greater than 100 µM and greater than 100 µM.
As to `COc1cc(OC)c(C=C(SCc2ccc(Cl)cc2)C(=O)c2ccc(Br)cc2)c(OC)c1` [Example 193], the IC50 lay in the range of 10 to 25 µM in experiment [1] and 1 to 10 µM in the experiment on DU145 (prostate cancer).
Taken in the same sequence, the figures for `COc1cc(OC)c(C=C(SCc2ccc(Cl)cc2)C(=O)c2ccc([N+](=O)[O-])cc2)c(OC)c1` [Example 194] were 50 to 100 µM and greater than 100 µM.
Taken in the same sequence, the figures for `O=C(C(=Cc1ccc(Cl)cc1Cl)SCc1ccc(Cl)cc1)c1ccc(Cl)cc1` [Example 195] were 25 to 50 µM and 25 to 50 µM.
Taken in the same sequence, the figures for `O=C(C(=Cc1ccc(O)cc1O)SCc1ccc(Cl)cc1)c1ccc(Cl)cc1` [Example 196] were 50 to 100 µM and 50 to 100 µM.
In the case of `Cc1ccc(C)c(C=C(SCc2ccc(Cl)cc2)C(=O)c2ccc(Cl)cc2)c1` [Example 197], the IC50 (in experiment [1]; in the experiment with DU145 (prostate cancer)) was 10 to 25 µM in each case.
Turning to `COc1ccccc1C=C(SCc1ccc(Cl)cc1)C(=O)c1ccc(Br)cc1` [Example 198], the results for the IC50 (in experiment [1]; in the experiment with DU145 (prostate cancer)) were 10 to 25 µM and 1 to 10 µM, respectively.
As for `COc1ccccc1C=C(SCc1ccc(Cl)cc1)C(=O)c1ccc(Cl)cc1` [Example 199], the IC50 (in experiment [1]; in the experiment with DU145 (prostate cancer)) was 1 to 10 µM in each case.
For `COc1ccccc1C=C(SCc1ccc(Cl)cc1)C(=O)c1ccc([N+](=O)[O-])cc1` [Example 200], the IC50 is 1 to 10 µM in experiment [1] and 10 to 25 µM in the experiment with DU145 (prostate cancer).
For `O=C(C(=Cc1ccc[nH]1)SCc1ccc(Cl)cc1)c1ccc(Cl)cc1` [Example 201] the same measures were 10 to 25 µM and 25 to 50 µM.
For `Cc1cc(C)cc(C=C(SCc2ccc(Cl)cc2)C(=O)c2ccc(Cl)cc2)c1` [Example 202] the same measures were 10 to 25 µM and 10 to 25 µM.
Taken in the same sequence, the figures for `COc1ccc(C=C(SCc2ccc(Cl)cc2)C(=O)c2ccc(Br)cc2)cc1O` [Example 203] were 1 to 10 µM and 1 to 10 µM.
Regarding `COc1ccc(C=C(SCc2ccc(Cl)cc2)C(=O)c2ccc(Cl)cc2)cc1O` [Example 204], the IC50 is no more than 1 µM in experiment [1] and 1 to 10 µM with DU145 (prostate cancer).
Taken in the same sequence, the figures for `Cc1ccsc1C=C(SCc1ccc(Cl)cc1)C(=O)c1ccc(Br)cc1` [Example 205] were 25 to 50 µM and 25 to 50 µM.
Taken in the same sequence, the figures for `Cc1ccsc1C=C(SCc1ccc(Cl)cc1)C(=O)c1ccc(Cl)cc1` [Example 206] were 50 to 100 µM and 50 to 100 µM.
For the compound `Cc1ccsc1C=C(SCc1ccc(Cl)cc1)C(=O)c1ccc([N+](=O)[O-])cc1` [Example 207], the IC50 (in experiment [1]; in the experiment with DU145 (prostate cancer)) was greater than 100 µM throughout.
For the compound `CN(C)c1ccc(C=C(SCc2ccc(Cl)cc2)C(=O)c2ccc(Br)cc2)cc1` [Example 208], the IC50 was 1 to 10 µM in experiment [1] and 10 to 25 µM with DU145 (prostate cancer).
Taken in the same sequence, the figures for `CN(C)c1ccc(C=C(SCc2ccc(Cl)cc2)C(=O)c2ccc(C(=O)O)cc2)cc1` [Example 209] were 1 to 10 µM and 1 to 10 µM.
For `CN(C)c1ccc(C=C(SCc2ccc(Cl)cc2)C(=O)c2ccc(Cl)cc2)cc1` [Example 210] the same measures were 10 to 25 µM and greater than 100 µM.
Turning to `CN(C)c1ccc(C=C(SCc2ccc(Cl)cc2)C(=O)c2ccc([N+](=O)[O-])cc2)cc1` [Example 211], the IC50 in experiment [1] is 50 to 100 µM; in the experiment on DU145 (prostate cancer), greater than 100 µM.
Taken in the same sequence, the figures for `O=C(C(=Cc1ccc(OCc2ccccc2)cc1)SCc1ccc(Cl)cc1)c1ccc(Cl)cc1` [Example 212] were 10 to 25 µM and 1 to 10 µM.
Taken in the same sequence, the figures for `O=C(O)c1ccc(C(=O)C(=Cc2ccc(Br)c([N+](=O)[O-])c2)SCc2ccc(Cl)cc2)cc1` [Example 213] were no more than 1 µM and 1 to 10 µM.
Take `O=C(C(=Cc1ccc(Br)cc1)SCc1ccc(Cl)cc1)c1ccc(Br)cc1` [Example 214]: the IC50 (in experiment [1]; with DU145 (prostate cancer)) was 1 to 10 µM throughout.
For `O=C(C(=Cc1ccc(Br)cc1)SCc1ccc(Cl)cc1)c1ccc(Cl)cc1` [Example 215], the IC50 (in experiment [1]; in the experiment on DU145 (prostate cancer)) was 1 to 10 µM throughout.
`O=C(O)c1ccc(C(=O)C(=Cc2ccc(Cl)c([N+](=O)[O-])c2)SCc2ccc(Cl)cc2)cc1` [Example 216]: the IC50 in experiment [1] was no more than 1 µM; in the experiment with DU145 (prostate cancer) it was 1 to 10 µM.
Taken in the same sequence, the figures for `O=C(C(=Cc1ccc(Cl)cc1)SCc1ccc(Cl)cc1)c1ccccc1Cl` [Example 217] were 1 to 10 µM and 50 to 100 µM.
For `O=C(C(=Cc1ccc(Cl)cc1)SCc1ccc(Cl)cc1)c1ccc(Br)cc1` [Example 218] the same measures were 1 to 10 µM and 10 to 25 µM.
For `O=C(C(=Cc1ccc(O)c([N+](=O)[O-])c1)SCc1ccc(Cl)cc1)c1ccc(Cl)cc1` [Example 220] the same measures were 10 to 25 µM and 10 to 25 µM.
`O=C(C(=Cc1ccc(O)cc1)SCc1ccc(Cl)cc1)c1ccc(Br)cc1` [Example 221]: the values for the IC50 (in experiment [1]; in the experiment on DU145 (prostate cancer)) were 1 to 10 µM and 10 to 25 µM, respectively.
Taken in the same sequence, the figures for `O=C(C(=Cc1ccc(O)cc1)SCc1ccc(Cl)cc1)c1ccc(Cl)cc1` [Example 222] were 1 to 10 µM and 10 to 25 µM.
Taken in the same sequence, the figures for `CSc1ccc(C=C(SCc2ccc(Cl)cc2)C(=O)c2ccc(C(=O)O)cc2)cc1` [Example 223] were greater than 100 µM and greater than 100 µM.
Taken in the same sequence, the figures for `CSc1ccc(C=C(SCc2ccc(Cl)cc2)C(=O)c2ccc(Cl)cc2)cc1` [Example 224] were 1 to 10 µM and 25 to 50 µM.
As for `COc1ccc(C=C(SCc2ccc(Cl)cc2)C(=O)c2ccc(Br)cc2)cc1` [Example 225], the IC50 lay within 1 to 10 µM in experiment [1] and 10 to 25 µM in the experiment with DU145 (prostate cancer).
For `COc1ccc(C=C(SCc2ccc(Cl)cc2)C(=O)c2ccc(Br)cc2)cc1` [Example 226] the same measures were 1 to 10 µM and 25 to 50 µM.
Taken in the same sequence, the figures for `COc1ccc(C=C(SCc2ccc(Cl)cc2)C(=O)c2ccc(C(=O)O)cc2)cc1` [Example 227] were 25 to 50 µM and 25 to 50 µM.
For `COc1ccc(C=C(SCc2ccc(Cl)cc2)C(=O)c2ccc(Cl)cc2)cc1` [Example 228] the same measures were 1 to 10 µM and 10 to 25 µM.
Regarding `Cc1ccc(C=C(SCc2ccc(Cl)cc2)C(=O)c2ccc(Br)cc2)s1` [Example 229], the IC50 is 50 to 100 µM in experiment [1] and greater than 100 µM in the experiment on DU145 (prostate cancer).
Taken in the same sequence, the figures for `Cc1ccc(C=C(SCc2ccc(Cl)cc2)C(=O)c2ccc(Cl)cc2)s1` [Example 230] were 50 to 100 µM and 50 to 100 µM.
For `Cc1ccc(C=C(SCc2ccc(Cl)cc2)C(=O)c2ccc([N+](=O)[O-])cc2)s1` [Example 231] the same measures were 25 to 50 µM and 25 to 50 µM.
Consider `COc1cc(OC)c(C=C(SCc2ccc(F)cc2)C(=O)c2ccc(Br)cc2)c(OC)c1` [Example 233], for which the IC50 (in experiment [1]; in the experiment with DU145 (prostate cancer)) was 1 to 10 µM throughout.
For `COc1cc(OC)c(C=C(SCc2ccc(F)cc2)C(=O)c2ccc(Cl)cc2)c(OC)c1` [Example 234], the IC50 (in experiment [1]; in the experiment with DU145 (prostate cancer)) was 10 to 25 µM in each case.
In the case of `Cc1ccc(C)c(C=C(SCc2ccc(F)cc2)C(=O)c2ccc(Br)cc2)c1` [Example 235], the IC50 in experiment [1] fell in the range of 50 to 100 µM; in the experiment on DU145 (prostate cancer), 1 to 10 µM.
For `O=C(C(=Cc1ccccc1OCc1ccccc1)SCc1ccc(F)cc1)c1ccc(Br)cc1` [Example 236] the same measures were 1 to 10 µM and 1 to 10 µM.
Taken in the same sequence, the figures for `COc1ccccc1C=C(SCc1ccc(F)cc1)C(=O)c1ccc(Cl)cc1` [Example 240] were 1 to 10 µM and 10 to 25 µM.
With `Cc1cc(C)cc(C=C(SCc2ccc(F)cc2)C(=O)c2ccc(Br)cc2)c1` [Example 242], the IC50 in experiment [1] was 1 to 10 µM; in the experiment on DU145 (prostate cancer), 10 to 25 µM.
For `COc1ccc(C=C(SCc2ccc(F)cc2)C(=O)c2ccc(C(=O)O)cc2)cc1O` [Example 244] the same measures were 1 to 10 µM and 10 to 25 µM.
For `Cc1ccsc1C=C(SCc1ccc(F)cc1)C(=O)c1ccc(Br)cc1` [Example 246] the same measures were greater than 100 µM and 50 to 100 µM.
For `CCN(CC)CCNC(=O)c1c(C)[nH]c(C=C(SCc2ccc(F)cc2)C(=O)c2ccc(C(=O)O)cc2)c1C` [Example 248] the same measures were 50 to 100 µM and 50 to 100 µM.
As for `CN(C)c1ccc(C=C(SCc2ccc(F)cc2)C(=O)c2ccc(Br)cc2)cc1` [Example 249], the IC50 in experiment [1] was in the range of 1 to 10 µM; in the experiment on DU145 (prostate cancer), 25 to 50 µM.
For `CN(C)c1ccc(C=C(SCc2ccc(F)cc2)C(=O)c2ccc(C(=O)O)cc2)cc1` [Example 250] the same measures were 10 to 25 µM and 25 to 50 µM.
Take `O=C(O)c1ccc(C(=O)C(=Cc2ccc(Br)c([N+](=O)[O-])c2)SCc2ccc(F)cc2)cc1` [Example 252]: the values for the IC50 (in experiment [1]; in the experiment with DU145 (prostate cancer)) were no more than 1 µM and 1 to 10 µM, respectively.
For `O=C(C(=Cc1ccc(Br)cc1)SCc1ccc(F)cc1)c1ccc(Br)cc1` [Example 253] the same measures were 1 to 10 µM and 25 to 50 µM.
On to `O=C(C(=Cc1ccc(Br)cc1)SCc1ccc(F)cc1)c1ccc(Cl)cc1` [Example 254], for which the IC50 in experiment [1] is 1 to 10 µM; in the experiment with DU145 (prostate cancer), 10 to 25 µM.
